In the assay the target is T1, 5-hydroxytryptamine receptor 2C (Homo sapiens, UniProt P28335).
T1 sequence (P28335 whole entry): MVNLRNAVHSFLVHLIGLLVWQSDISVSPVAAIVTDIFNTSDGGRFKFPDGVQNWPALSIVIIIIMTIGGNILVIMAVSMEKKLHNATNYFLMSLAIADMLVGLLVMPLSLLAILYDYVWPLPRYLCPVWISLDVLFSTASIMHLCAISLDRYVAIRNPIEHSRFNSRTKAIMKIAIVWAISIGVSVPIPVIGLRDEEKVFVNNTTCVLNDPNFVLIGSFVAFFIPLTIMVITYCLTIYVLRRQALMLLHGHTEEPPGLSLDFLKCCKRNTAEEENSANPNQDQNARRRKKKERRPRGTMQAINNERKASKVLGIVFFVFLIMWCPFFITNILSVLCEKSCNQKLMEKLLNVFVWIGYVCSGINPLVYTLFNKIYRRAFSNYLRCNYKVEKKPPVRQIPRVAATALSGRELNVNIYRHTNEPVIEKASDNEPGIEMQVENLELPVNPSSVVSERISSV

For the compound `COc1ccc(CC(=O)N(Cc2ccc(C)cc2)C2CCN(C)CC2)cc1` [N-(4-Methylbenzyl)-N-(1-methyl-4-piperidinyl)-4-methoxybenzeneacetamide], the Ki (commonly the equilibrium dissociation constant of an inhibitor or competing ligand from its target) turned out to be 2.9 nM.
